Patent publication US6531610B1 (Abbott Laboratories, priority 1989, dated 2003)

What was measured:
MT4 cells = experiment: in vitro; format: cell-based; details: concentration at which 50% of the cells remain viable; MT4 cells; read-out: LC50 (the source's name)
Description: The anti-HIV activity of the compounds of the invention can be determined in MT4 cells according to the procedure of Kempf, et. al. (Antimicrob. Agents Chemother. 1991, 35, 2209).

HIV-13B in MT4 cells = experiment: Antiviral activity: inhibition of the cytopathic effect of HIV in MT4 cells; format: cell-based, HIV-1; details: concentration giving 50% inhibition of the cytopathic effect of HIV; HIV-13B in MT4 cells; read-out: IC50

| Structure (SMILES) | melting point [°C] | CC50 (MT4 cells) [nM] | IC50 (HIV-13B in MT4 cells) [nM] |
| --- | --- | --- | --- |
| CC(C)c1csc(COC(=O)N[C@H](C(=O)N[C@@H](Cc2ccccc2)C[C@H](O)[C@H](Cc2ccccc2)NC(=O)OCc2cncs2)C(C)C)n1 [Example 21, (2S,3S,5S)-5-(N-(N-((4-Isopropyl-2-thiazolyl)methoxycarbonyl)valinyl)amino)-2-(N-((5-thiazolyl)methoxycarbonyl)amino)-1,6-diphenyl-3-hydroxyhexane] | 62 to 64 | – | – |
| CC(C)c1nc(CN(C)C(=O)N[C@H](C(=O)N[C@@H](Cc2ccccc2)C[C@H](O)[C@H](Cc2ccccc2)NC(=O)OCc2cnco2)C(C)C)co1 [Example 19] | – | 87000 | 22 to 48 |
| CC(C)c1nc(CC(=O)N[C@H](C(=O)N[C@@H](Cc2ccccc2)C[C@H](O)[C@H](Cc2ccccc2)NC(=O)OCc2cncs2)C(C)C)cs1 [Example 50] | – | > 100000 | 150 to 270 |
